# Patent US20240182495A1, “ANTIBACTERIAL COMPOUNDS” (JANSSEN SCIENCES IRELAND UNLIMITED COMPANY, priority 2021, published 2024)
# Like-named read-outs stand apart in the source and are kept apart here.
# What was measured:
# M. tuberculosis H37Rv = details: strain H37Rv, inside macrophages; cited from earlier work
# [1] = system: Mycobacterium tuberculosis strain (EH4.0, GFP-expressing; Test 2: H37Rv); test: MIC determination against M. tuberculosis, Test 1 (and/or Test 2); format: cell-based; details: Mycobacterium tuberculosis, H37RV, 168 h, 7 days incubation, fluorescence
# [2] = Chemical stability testing in DMSO, ACN/H2O, ACN/0.1N HCl, ACN/0.1N NaOH (% by LCMS); format: physicochemical
# Procedure: Preliminary Protocol • Add 3 μl of a 10 mM DMSO stock solution to 1 ml of the following solvents in a 1.5 ml HPLC vial. • DMSO (reference solution) • H2O/Acetonitril 1/1 (assay solution) • 0.1N HCl/Acetonitril 1/1 (assay solution) • Mix well, […] LCMS • Compare the chromatograms of the two assay solutions with the reference solution and report the additional peaks as degradation peaks
# physchem [3] = format: physicochemical
# 2C9 = 2C9 (Homo sapiens, UniProt P11712); test: CYP cocktail inhibition, 2C9; format: in vitro ADME; details: read-out: CYPS IC50 2C9
# Chain of 2C9 (P11712 whole entry): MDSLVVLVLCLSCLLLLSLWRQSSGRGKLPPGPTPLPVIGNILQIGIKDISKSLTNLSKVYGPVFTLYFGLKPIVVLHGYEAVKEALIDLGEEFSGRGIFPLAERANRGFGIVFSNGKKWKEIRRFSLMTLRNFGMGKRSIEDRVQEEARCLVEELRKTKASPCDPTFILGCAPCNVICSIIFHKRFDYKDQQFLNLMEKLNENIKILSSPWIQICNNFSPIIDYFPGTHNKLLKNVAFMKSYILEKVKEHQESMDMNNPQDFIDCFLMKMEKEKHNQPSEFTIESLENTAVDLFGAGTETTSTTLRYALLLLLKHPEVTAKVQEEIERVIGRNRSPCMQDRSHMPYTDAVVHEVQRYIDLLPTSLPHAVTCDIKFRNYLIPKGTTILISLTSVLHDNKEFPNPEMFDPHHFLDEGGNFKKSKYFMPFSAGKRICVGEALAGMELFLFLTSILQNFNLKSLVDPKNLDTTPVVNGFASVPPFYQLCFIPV
# From the text: (§1) The compounds of the invention/examples may have advantages associated with in vitro potency, kill kinetics (i.e. bactericidal effect) in vitro, PK properties, food effect, safety/toxicity (including liver toxicity, coagulation, 5-LO oxygenase), metabolic stability, Ames II negativity, MINT negativity, aqueous based solubility (and ability to formulate) and/or cardiovascular effect e.g. on animals (e.g. anesthetized guinea pig). Data that is generated/calculated may be obtained using standard methods/assays, for instance that are available in the literature or which may be performed by a supplier (e.g. Microsomal Stability Assay—Cyprotex, Mitochondrial toxicity (Glu/Gal) assay—Cyprotex, as well as literature CYP cocktail inhibition assays). GSH can be measured (reactive metabolites, […]) to observe if a dihydrodiol is observed by LCMS (fragmentation ions), which would correspond to a dihydroxylation on the core heterocycle.
# [4] = MDCK permeability / efflux; details: dog, MDCK; on MDCK AB+inh: unit not given here
# MDCK = MDCK permeability / efflux; details: A to B with inhibitor; on MDCK AB+inh: unit not given here
# [5] = Mitochondrial toxicity (Glu/Gal) assay; format: cell-based; details: for Glu/Gal: Gal: galactose medium; for Glu/Gal: Glu: glucose medium; on all read-outs here: unit not given here
# From the text: as §1
# hERG = hERG (Homo sapiens, UniProt Q12809); test: sync hERG; format: cell-based
# Chain of hERG (Q12809 whole entry): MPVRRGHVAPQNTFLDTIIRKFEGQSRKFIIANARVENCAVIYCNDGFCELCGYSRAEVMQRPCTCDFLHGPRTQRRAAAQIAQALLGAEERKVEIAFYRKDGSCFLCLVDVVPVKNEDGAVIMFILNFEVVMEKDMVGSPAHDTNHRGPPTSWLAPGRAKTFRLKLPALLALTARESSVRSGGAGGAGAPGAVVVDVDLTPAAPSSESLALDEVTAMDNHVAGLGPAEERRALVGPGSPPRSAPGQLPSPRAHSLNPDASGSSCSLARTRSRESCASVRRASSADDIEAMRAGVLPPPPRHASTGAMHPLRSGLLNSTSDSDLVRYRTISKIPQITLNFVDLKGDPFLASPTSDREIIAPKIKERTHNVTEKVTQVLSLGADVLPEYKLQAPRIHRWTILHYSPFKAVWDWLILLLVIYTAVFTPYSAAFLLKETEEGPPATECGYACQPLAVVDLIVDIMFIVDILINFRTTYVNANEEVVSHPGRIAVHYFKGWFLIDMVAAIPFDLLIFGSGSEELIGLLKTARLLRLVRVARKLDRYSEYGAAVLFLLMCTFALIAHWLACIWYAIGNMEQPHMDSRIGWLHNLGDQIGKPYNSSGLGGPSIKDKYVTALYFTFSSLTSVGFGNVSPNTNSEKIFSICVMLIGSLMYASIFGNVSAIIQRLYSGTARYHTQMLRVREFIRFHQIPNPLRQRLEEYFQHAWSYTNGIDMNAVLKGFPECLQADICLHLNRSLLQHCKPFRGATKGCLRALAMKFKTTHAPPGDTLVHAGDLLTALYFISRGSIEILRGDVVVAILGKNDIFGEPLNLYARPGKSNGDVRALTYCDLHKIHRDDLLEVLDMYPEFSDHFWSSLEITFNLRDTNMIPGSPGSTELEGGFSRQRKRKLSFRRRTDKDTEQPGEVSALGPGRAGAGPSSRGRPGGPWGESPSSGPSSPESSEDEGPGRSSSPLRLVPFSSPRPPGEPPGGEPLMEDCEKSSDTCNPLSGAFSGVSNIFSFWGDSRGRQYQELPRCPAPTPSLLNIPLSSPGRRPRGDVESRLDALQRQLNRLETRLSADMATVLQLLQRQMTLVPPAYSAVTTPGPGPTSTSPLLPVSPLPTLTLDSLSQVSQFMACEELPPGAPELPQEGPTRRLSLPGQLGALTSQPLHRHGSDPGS
# [6] = LM Clint (microsomal stability), human; format: in vitro ADME; details: h (human) liver microsomes; read-out: LM Clint
# From the text: as §1
# physchem [7] = format: physicochemical; remark: listed apart in the source
# From the text: as §1
# [8] = system: CYPs (all isoforms, or the isoforms not named for that compound); test: CYP cocktail inhibition, all / other isoforms; format: in vitro ADME; details: read-out: CYPS IC50 (all / others)
# From the text: as §1
# in vitro [9] = details: mouse, plasma
# physchem [10] = test: physchem
# in vitro [11] = details: human, plasma
# AMES II = details: score
# From the text: as §1
# [12] = LM Clint (microsomal stability), mouse; format: in vitro ADME; details: m (mouse) liver microsomes; read-out: LM Clint
# From the text: as §1
# [13] = Hep t1/2 (hepatocyte stability), mouse; details: hepatocytes
# 2C8 = target: T1, 2C8 (Homo sapiens, UniProt P10632); test: CYP cocktail inhibition, 2C8; format: in vitro ADME; details: read-out: CYPS IC50 2C8
# T1 sequence (P10632 1-490): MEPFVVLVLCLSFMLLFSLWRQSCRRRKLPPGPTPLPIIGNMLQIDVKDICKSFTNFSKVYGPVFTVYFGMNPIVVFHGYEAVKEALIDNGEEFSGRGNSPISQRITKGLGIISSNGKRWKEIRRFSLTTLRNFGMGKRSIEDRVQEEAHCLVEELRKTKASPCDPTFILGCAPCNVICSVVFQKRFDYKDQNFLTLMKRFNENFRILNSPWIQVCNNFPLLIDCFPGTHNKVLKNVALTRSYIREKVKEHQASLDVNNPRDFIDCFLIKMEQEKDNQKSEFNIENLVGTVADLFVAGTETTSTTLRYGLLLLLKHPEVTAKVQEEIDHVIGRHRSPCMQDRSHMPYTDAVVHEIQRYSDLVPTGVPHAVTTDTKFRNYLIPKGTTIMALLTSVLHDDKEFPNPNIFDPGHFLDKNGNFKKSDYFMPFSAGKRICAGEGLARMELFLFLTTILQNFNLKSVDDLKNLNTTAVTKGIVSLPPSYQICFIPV
# From the text: as §1
# [14] = pH 2, simulated gastric fluid, thermodynamic from solid
# [15] = pH 7, aqueous buffer, thermodynamic from solid
Compound,IC50 [1],"chemical stability (% by LCMS) ([2]; 72 h, 30 µM)","chemical stability (% by LCMS) ([2]; 72 h, 30 µM, pH 1.6)","chemical stability (% by LCMS) ([2]; 48 h, 30 μM)","chemical stability (% by LCMS) ([2]; 48 h, 30 μM, pH 1.6)",MDCK AB+inh (MDCK),Glu/Gal: Gal [5],Glu/Gal: Glu [5],IC50 (hERG),microsomal CLint [6],solubility thermodynamic (physchem [7]; [14]),further results
CCc1nc2ccc(Cl)cn2c1C(=O)NCc1ccc(N2CCC(c3ccc(OC(F)(F)F)cc3)CC2)cc1 [Compound Q203],–,–,–,–,–,–,–,–,–,–,–,MIC50 (M. tuberculosis H37Rv): 0.00028 µM
CCc1nc2nc(N)c(Cl)cn2c1C(=O)NCc1ccc(-c2nc3n(n2)CCN(S(=O)(=O)C(F)(F)F)C3)c(F)c1 [Compound 12],0.0933 µM,96.14%,97.06%,–,–,–,–,–,–,–,–,–
Cc1cnc2nc(C3CC3)c(C(=O)NCc3ccc(-c4nc5n(n4)CCN(S(=O)(=O)C(F)(F)F)C5)cc3)n2c1 [Compound 42],0.00501 µM,–,–,100%,100%,–,–,–,–,–,–,–
O=C(NCc1ccc(-c2nc3n(n2)CCN(S(=O)(=O)C(F)(F)F)C3)c(F)c1)c1c(C(F)(F)F)nc2ccccn12 [Compound 6],0.0832 µM,–,–,100%,100%,–,–,–,–,–,–,"purity (physchem [3]; 0.052 mg/mL in SGF with 33.3% ACN, remained so up to 4 hrs): 99.88%"
CCc1nc2ncc(C)cn2c1C(=O)NCc1ccc(-c2nc3n(n2)CCN(S(=O)(=O)C(F)(F)F)C3)c(F)c1 [Compound 7],0.00851 µM,100%,100%,–,–,21.4,> 200,> 200,> 30 µM,22.6 µL/min/mg,125 µM,IC50 (2C9): 15.5 µM; efflux ratio [4]: 61.7; solubility thermodynamic (physchem [7]; [15]): 1.62 µM; IC50 ([8]; human): > 20 µM
CCc1nc2ncc(Cl)cn2c1C(=O)NCc1ccc(-c2nc3n(n2)CCN(S(=O)(=O)C(F)(F)F)C3)cc1 [Compound 2],0.01 µM,100%,90.52%,–,–,32.5,> 100,> 100,> 30 µM,9.3 µL/min/mg,0.99 µM,"fraction unbound (in vitro [9]): 0.0054; efflux ratio [4]: 12.6; solubility (physchem [10]; fassif): < 5 µM; solubility (physchem [10]; fessif): 24.4 µM; purity (physchem [3]; 0.065 mg/mL in SGF with 20% ACN, at 0 hr): 99.56%; purity (physchem [3]; 0.065 mg/mL in SGF with 20% ACN, at 0.25 hr): 99.38%; purity (physchem [3]; 0.065 mg/mL in SGF with 20% ACN, at 0.5 hr): 99.21%; purity (physchem [3]; 0.065 mg/mL in SGF with 20% ACN, at 1 hr): 98.89%; purity (physchem [3]; 0.065 mg/mL in SGF with 20% ACN, at 2 hr): 98.28%; purity (physchem [3]; 0.065 mg/mL in SGF with 20% ACN, at 4 hr): 97.1%; half-life at 0.065 mg/mL (physchem [3]; simulated gi fluid): 113 h; fraction unbound (in vitro [11]): 0.0117; solubility thermodynamic (physchem [7]; [15]): < 0.13 µM; IC50 [8]: > 20 µM; AMES II (AMES II): 1"
CCc1nc2cc(N)c(Cl)cn2c1C(=O)NCc1ccc(-c2nc3n(n2)CCN(S(=O)(=O)C(F)(F)F)C3)c(F)c1 [Compound 14],0.105 µM,100%,100%,–,–,–,–,–,–,–,–,–
CCc1nc2ncc(C)cn2c1C(=O)NCc1ccc(-c2cc3n(n2)CCN(S(=O)(=O)C(F)(F)F)C3)c(F)c1 [Compound 82],0.00282 µM,–,–,100%,100%,16.2,> 25,> 25,20.4 µM,231 µL/min/mg,12.3 µM,"solubility (physchem [10]; fassif): 24.5 µM; solubility (physchem [10]; fessif): 8.8 µM; microsomal CLint [12]: 28 µL/min/mg; half-life [13]: 0.275 h; IC50 (2C8): 10.6 µM; solubility thermodynamic (physchem [7]; pH 4, aqueous buffer): < 0.02 µM; IC50 [8]: > 19.5 µM; AMES II (AMES II): 1"
